The record followed here is patent US20260283986A1, “NOVEL RAS INHIBITORS” (KHR Biotec GmbH, priority 2022, published 2026).

What all share (type): cell-based
Experiment [1] relates to KRAS mutants (G12V, G12C, G12D, G12C/Y96D). Kind of experiment: NanoBiT assay for the RAS GTP-loading in HeLa cells (LgBit-KRAS mutants / SmBit-CRAF-RBD). The following applies: 2 h in serum-free DMEM, normalized to DMSO. As to the method:
FIG. 3: NanoBit assay for RAS activation (G12V, G12C, G12D, G12C/Y96D,)
NanoBiT assay for the RAS GTP-loading was performed in HeLa cells transfected with LgBit-KRAS mutants and SmBit-CRAF-RBD. Cells were treated with Alexandrine dihydrochloride for 2 h in serum-free DMEM. After incubation, the substrate for NanoLuc was added, and the luminescence was measured in a multiplate reader. Data were normalized to cells transfected with the indicated mutant and exposed to DMSO for 2 h. DMSO-treated cells were set as 1. The bars represent mean±SEM from 3 independent experiments.

For experiment [2], the system named is BaF3 KRAS G12C cells. As to the kind of experiment: MTT assay for cell viability in 96 well cell culture plate. The following applies: Mus musculus, 48 h treatment. As to the method: (§1) FIGS. 4a) and 4b): MTT assay for cell viability in 96 well cell culture plate Cells were treated with Alexandrine dihydrochloride for 48 h and cell viability was evaluated by MTT assay. DMSO-treated cells were set as 1. The results shown are mean±SEM from 3 independent experiments.

The subject of experiment [3] is BaF3 KRAS G12C/Y96D cells. The description is as above. The following applies: Mus musculus, 48 h treatment. As to the method: as §1
Experiment [4] has as its system ASPC1 cells. Kind of experiment: Soft agar colony formation assay, colonies stained with MTT. The following applies: Homo sapiens; ASPC1, growth in soft agar, MTT absorbance at 570 nm, 3 independent experiments. As to the method: (§2) Metabolic activity was quantified using Cell Proliferation Kit I (Roche, Basel, Switzerland). Cells were seeded in 96-well cell culture plates, using 5000 cells per well for NCI-H358 cells. After treatment, 10 μl of MTT solution was added and incubated for 2 h in CO2 incubator. Then 100 μl of solubilization buffer was added to each well and incubated overnight in CO2 incubator. Cell viability, assessed by the amount of metabolized MTT, was quantified by measuring absorbance at 570 nm. MTT assay for the growth of different tumor cell lines with RAS mutations in soft agar Alexandrine dihydrochloride. NCI-H358, H358, H2122, ASPC-1, HCT-116, T24 and HT1080 cells were used for the soft agar colony formation assay. After the treatment with Alexandrine dihydrochloride, the colonies were stained with MTT and the value was quantified by measuring absorbance at 570 nm after solubilization. The results represent mean±SSEM from 3 independent experiments.

The test system of experiment [5] is NCI-H2122 cells. Described as above. The following applies: Homo sapiens; NCI-H2122, growth in soft agar, MTT absorbance at 570 nm, 3 independent experiments. As to the method: as §2
Experiment [6] has as its system NCI-H358 cells. The description is as above. The following applies: Homo sapiens; NCI-H358, growth in soft agar, MTT absorbance at 570 nm, 3 independent experiments. As to the method:
as §2

Experiment [7] concerns T24 cells. The description is as above. The following applies: Homo sapiens, T-24; T24, growth in soft agar, MTT absorbance at 570 nm, 3 independent experiments. As to the method: as §2
The subject of experiment [8] is HT1080 cells. The description is as above. The following applies: Homo sapiens, HT-1080; HT1080, growth in soft agar, MTT absorbance at 570 nm, 3 independent experiments. As to the method: as §2
For experiment [9], the system named is HCT-116 cells. The description is as above. The following applies: Homo sapiens; HCT-116, growth in soft agar, MTT absorbance at 570 nm, 3 independent experiments. As to the method: as §2
Experiment [10] addresses KRAS G12V (Homo sapiens, UniProt P01116, G12V). Kind of experiment: NanoBit assay for RAS activation (LgBiT-RAS / SmBiT-CRAF RBD). The following applies: KRAS G12V with CRAF RBD, 2 h with inhibitor in serum free DMEM. As to the method:
(§3) FIGS. 1a) and 1b): NanoBit assay for RAS activation (KRAS G12V, NRAS G12V, HRAS G12V) N-terminal LgBiT and C-terminal SmBiT construct was purchased from Promega and K, N and HRAS G12V (full length) was cloned with Xho I and Bgl II to LgBit and CRAF Ras binding domain (1-149) was cloned with EcoRI and Bgl II to SmBit. For transfections, 1 μg or 2 μg of (12 well/6 well) plasmids were transfected into cells with 0.5 mM of PEI reagent in 100 μl or 200 μl PBS. One day after transfection, cells were harvested and seeded into 96 well white plates, half area (Greiner). After an additional day the medium was changed to serum free DMEM and the cells were incubated for 2 h with inhibitor. NanoGlo assay was performed according to the manufacturer's instructions. The luminescence was measured using Tecan infinite (Tecan).

Experiment [11] addresses NRAS G12V (Homo sapiens, UniProt P01111, G12V). The experiment is described as above. The following applies: NRAS G12V with CRAF RBD, 2 h with inhibitor in serum free DMEM. As to the method:
as §3

The target of experiment [12] is HRAS G12V (Homo sapiens, UniProt P01112, G12V). The experiment is described as above. The following applies: HRAS G12V with CRAF RBD, 2 h with inhibitor in serum free DMEM. As to the method:
as §3

The subject of experiment [13] is SNF96.2 cells. As to the kind of experiment: RASOpathie-Model, MTT assay for cell viability in 96 well cell culture plate. The following applies: SNF96.2, 48 h treatment. As to the method: FIG. 5: RASOpathie-Model of Alexandrine dihydrochloride; MTT assay for cell viability in 96 well cell culture plate Cells were treated with Alexandrine dihydrochloride for 48 h and cell viability was evaluated by MTT assay. DMSO-treated cells were set as 1. The results shown are mean±SEM from 3 independent experiments.

Counter-ions that a name gives are not always drawn.

Sequence of HRAS G12V (P01112 1-186 G12V): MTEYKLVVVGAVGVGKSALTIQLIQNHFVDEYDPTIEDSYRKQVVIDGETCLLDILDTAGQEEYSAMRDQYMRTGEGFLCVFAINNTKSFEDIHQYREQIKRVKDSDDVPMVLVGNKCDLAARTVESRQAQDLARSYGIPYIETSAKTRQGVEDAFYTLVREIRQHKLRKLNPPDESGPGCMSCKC
Sequence of NRAS G12V (P01111 1-186 G12V): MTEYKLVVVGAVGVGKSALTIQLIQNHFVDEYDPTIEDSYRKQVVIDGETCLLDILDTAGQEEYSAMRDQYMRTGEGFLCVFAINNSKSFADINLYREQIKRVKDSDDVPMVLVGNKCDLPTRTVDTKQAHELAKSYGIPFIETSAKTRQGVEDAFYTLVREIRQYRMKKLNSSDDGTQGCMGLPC
Sequence of KRAS G12V (P01116 1-186 G12V): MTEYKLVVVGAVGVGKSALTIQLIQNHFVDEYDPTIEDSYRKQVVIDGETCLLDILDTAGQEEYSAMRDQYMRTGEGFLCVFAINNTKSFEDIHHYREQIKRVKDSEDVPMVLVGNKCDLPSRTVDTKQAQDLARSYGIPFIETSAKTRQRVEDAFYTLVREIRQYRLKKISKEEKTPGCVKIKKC

As to `CCCCC(CC)CNC(=N)NC(=N)NCCCCCCNC(=N)NC(=N)NCC(CC)CCCC` (stereo not shown) [Alexandrine dihydrochloride, 1,1′-Hexamethylenebis[5-(2-ethylhex-1-yl)]biguanide dihydrochloride], in experiment [1], the “inhibition of RAS activation of KRAS mutants (NanoBiT luminescence)” value is given as “inhibits different RAS-isoforms”. The IC50 in [2] worked out at 1170 nM; in [3], 1540 nM; in experiment [4], 1760 nM; in experiment [5], 1610 nM; in experiment [6], 1280 nM; in experiment [7] it was 1700 nM. In addition, the half-maximal inhibitory concentration (IC50) in [8] is 310 nM; in experiment [9], 1910 nM; in [13] it was 350 nM. Moreover, the “inhibition of K-RAS activation (NanoBit luminescence)” value in experiment [10] was “inhibits”. Moreover, the “inhibition of N-RAS activation (NanoBit luminescence)” value in [11] is listed as “inhibits”. Moreover, in experiment [12], the “inhibition of H-RAS activation (NanoBit luminescence)” value is given as “inhibits”.
